Laboratory results as given in ChEMBL document CHEMBL4000181, “Synthesis and biological screening of novel 2-morpholinoquinoline nucleus clubbed with 1,2,4-oxadiazole motifs” (Eur J Med Chem, 2017).
Converted amounts (≈) assume the structure as drawn.

What was measured:
Streptococcus pneumoniae = assay: Antibacterial activity against Streptococcus pneumoniae MTCC 1936 after 24 to 48 hrs by broth microdilution method; assay type: functional
Clostridium tetani = assay: Antibacterial activity against Clostridium tetani MTCC 449 after 24 to 48 hrs by broth microdilution method; assay type: functional
Bacillus subtilis = assay: Antibacterial activity against Bacillus subtilis MTCC 441 after 24 to 48 hrs by broth microdilution method; assay type: functional
Salmonella typhi = assay: Antibacterial activity against Salmonella typhi MTCC 98 after 24 to 48 hrs by broth microdilution method; assay type: functional, Salmonella enterica subsp. enterica serovar Typhi; details: Salmonella enterica
Vibrio cholerae = assay: Antibacterial activity against Vibrio cholerae MTCC 3906 after 24 to 48 hrs by broth microdilution method; assay type: functional
Escherichia coli = assay: Antibacterial activity against Escherichia coli MTCC 443 after 24 to 48 hrs by broth microdilution method; assay type: functional
Candida albicans = assay: Antifungal activity against Candida albicans MTCC 227 after 24 to 48 hrs by broth microdilution method; assay type: functional
Aspergillus fumigatus = assay: Antifungal activity against Aspergillus fumigatus MTCC 3008 after 24 to 48 hrs by broth microdilution method; assay type: functional
[1] = test system: Schizosaccharomyces pombe; assay: Toxicity in Schizosaccharomyces pombe Var. Paul Linder 3360 assessed as dead cells at 2.5 to 12.5 ug/ml after 17 hrs by trypan blue dye-based microscopic method

| Compound | MIC (Streptococcus pneumoniae) [µM] | MIC (Clostridium tetani) [µM] | MIC (Bacillus subtilis) [µM] | MIC (Salmonella typhi) [µM] | MIC (Vibrio cholerae) [µM] | MIC (Escherichia coli) [µM] | MIC (Candida albicans) [µM] | MIC (Aspergillus fumigatus) [µM] | Activity [1] |
| --- | --- | --- | --- | --- | --- | --- | --- | --- | --- |
| FC(F)(F)c1cccc(-c2nc(-c3cc4ccccc4nc3N3CCOCC3)no2)c1 | 234 (≈ 99.8 µg/mL) | 469 (≈ 200 µg/mL) | 234 (≈ 99.8 µg/mL) | 146 (≈ 62.3 µg/mL) | 234 (≈ 99.8 µg/mL) | 234 (≈ 99.8 µg/mL) | 1130 (≈ 482 µg/mL) | 234 (≈ 99.8 µg/mL) |  |
| Cc1ccc2nc(N3CCOCC3)c(-c3noc(-c4cccc(C(F)(F)F)c4)n3)cc2c1 | 227 (≈ 100 µg/mL) | 1140 (≈ 500 µg/mL) | 568 (≈ 250 µg/mL) | 568 (≈ 250 µg/mL) | 568 (≈ 250 µg/mL) | 454 (≈ 200 µg/mL) | 2270 (≈ 1000 µg/mL) | 1140 (≈ 500 µg/mL) | Non-Toxic |
| COC1=CC(=O)C[C@@H](C)[C@]12Oc1c(Cl)c(OC)cc(OC)c1C2=O [GRISEOFULVIN] |  |  |  |  |  |  | 1150 (≈ 405 µg/mL) | 283 (≈ 99.8 µg/mL) |  |
| FC(F)(F)c1ccc(-c2nc(-c3cc4ccccc4nc3N3CCOCC3)no2)cc1 | 146 (≈ 62.3 µg/mL) | 146 (≈ 62.3 µg/mL) | 146 (≈ 62.3 µg/mL) | 146 (≈ 62.3 µg/mL) | 586 (≈ 250 µg/mL) | 586 (≈ 250 µg/mL) | 2350 (≈ 1000 µg/mL) | 146 (≈ 62.3 µg/mL) |  |
| COc1ccc(-c2nc(-c3cc4cc(C)ccc4nc3N3CCOCC3)no2)cc1 | 310 (≈ 125 µg/mL) | 621 (≈ 250 µg/mL) | 621 (≈ 250 µg/mL) | 248 (≈ 99.8 µg/mL) | 497 (≈ 200 µg/mL) | 497 (≈ 200 µg/mL) | 1240 (≈ 500 µg/mL) | 2490 (≈ 1000 µg/mL) |  |
| Brc1ccc(-c2nc(-c3cc4ccccc4nc3N3CCOCC3)no2)cc1 | 286 (≈ 125 µg/mL) | 572 (≈ 250 µg/mL) | 457 (≈ 200 µg/mL) | 228 (≈ 99.7 µg/mL) | 228 (≈ 99.7 µg/mL) | 572 (≈ 250 µg/mL) | 1120 (≈ 488 µg/mL) | 2290 (≈ 1000 µg/mL) | Non-Toxic |
| Cc1ccc2nc(N3CCOCC3)c(-c3noc(-c4ccccc4)n3)cc2c1 | 672 (≈ 250 µg/mL) | 268 (≈ 99.8 µg/mL) | 1340 (≈ 501 µg/mL) | 1340 (≈ 501 µg/mL) | 268 (≈ 99.8 µg/mL) | 672 (≈ 250 µg/mL) | 2690 (≈ 1000 µg/mL) | 1340 (≈ 501 µg/mL) |  |
| Clc1ccc(-c2nc(-c3cc4ccccc4nc3N3CCOCC3)no2)cc1 | 159 (≈ 62.5 µg/mL) | 159 (≈ 62.5 µg/mL) | 255 (≈ 100 µg/mL) | 255 (≈ 100 µg/mL) | 255 (≈ 100 µg/mL) | 510 (≈ 200 µg/mL) | 637 (≈ 250 µg/mL) | 255 (≈ 100 µg/mL) | Toxic |
| O=[N+]([O-])c1ccc(-c2nc(-c3cc4ccccc4nc3N3CCOCC3)no2)cc1 | 248 (≈ 100 µg/mL) | 155 (≈ 62.5 µg/mL) | 155 (≈ 62.5 µg/mL) | 155 (≈ 62.5 µg/mL) | 620 (≈ 250 µg/mL) | 620 (≈ 250 µg/mL) | 1130 (≈ 456 µg/mL) | 248 (≈ 100 µg/mL) | Toxic |
| O=C(N[C@H](CO)[C@H](O)c1ccc([N+](=O)[O-])cc1)C(Cl)Cl [CHLORAMPHENICOL] | 150 (≈ 48.5 µg/mL) | 301 (≈ 97.3 µg/mL) | 150 (≈ 48.5 µg/mL) | 75 (≈ 24.2 µg/mL) | 75 (≈ 24.2 µg/mL) | 75 (≈ 24.2 µg/mL) |  |  |  |
| CC1(C)S[C@@H]2[C@H](NC(=O)[C@H](N)c3ccccc3)C(=O)N2[C@H]1C(=O)O [AMPICILLIN] | 286 (≈ 99.9 µg/mL) | 715 (≈ 250 µg/mL) | 715 (≈ 250 µg/mL) | 286 (≈ 99.9 µg/mL) | 286 (≈ 99.9 µg/mL) | 286 (≈ 99.9 µg/mL) |  |  |  |
| Cc1ccc2nc(N3CCOCC3)c(-c3noc(-c4ccc([N+](=O)[O-])cc4)n3)cc2c1 | 149 (≈ 62.2 µg/mL) | 149 (≈ 62.2 µg/mL) | 239 (≈ 99.8 µg/mL) | 599 (≈ 250 µg/mL) | 239 (≈ 99.8 µg/mL) | 239 (≈ 99.8 µg/mL) | 1140 (≈ 476 µg/mL) | 1200 (≈ 500 µg/mL) | Toxic |
| O=C(O)c1cn(C2CC2)c2cc(N3CCNCC3)c(F)cc2c1=O [CIPROFLOXACIN] | 31 (≈ 10.3 µg/mL) |  | 310 (≈ 103 µg/mL) | 31 (≈ 10.3 µg/mL) | 31 (≈ 10.3 µg/mL) | 31 (≈ 10.3 µg/mL) |  |  |  |
| NYSTATIN |  |  |  |  |  |  | 107 | 107 |  |
| Cc1ccc2nc(N3CCOCC3)c(-c3noc(-c4ccc(Cl)cc4)n3)cc2c1 | 246 (≈ 100 µg/mL) | 200 (≈ 81.4 µg/mL) | 153 (≈ 62.3 µg/mL) | 246 (≈ 100 µg/mL) | 153 (≈ 62.3 µg/mL) | 153 (≈ 62.3 µg/mL) | 246 (≈ 100 µg/mL) | 246 (≈ 100 µg/mL) | Toxic |
| Cc1ccc2nc(N3CCOCC3)c(-c3noc(-c4ccc(Br)cc4)n3)cc2c1 | 221 (≈ 99.7 µg/mL) | 221 (≈ 99.7 µg/mL) | 1110 (≈ 500 µg/mL) | 443 (≈ 200 µg/mL) | 554 (≈ 250 µg/mL) | 138 (≈ 62.3 µg/mL) | 2340 (≈ 1060 µg/mL) | 1110 (≈ 500 µg/mL) |  |
| c1ccc(-c2nc(-c3cc4ccccc4nc3N3CCOCC3)no2)cc1 | 698 (≈ 250 µg/mL) | 1400 (≈ 500 µg/mL) | 1400 (≈ 500 µg/mL) | 1400 (≈ 500 µg/mL) | 1400 (≈ 500 µg/mL) | 279 (≈ 100 µg/mL) | 2790 (≈ 1000 µg/mL) | 1400 (≈ 500 µg/mL) |  |
| Cc1ccc2nc(N3CCOCC3)c(-c3noc(-c4ccc(C(F)(F)F)cc4)n3)cc2c1 | 454 (≈ 200 µg/mL) | 568 (≈ 250 µg/mL) | 454 (≈ 200 µg/mL) | 454 (≈ 200 µg/mL) | 227 (≈ 100 µg/mL) | 227 (≈ 100 µg/mL) | 568 (≈ 250 µg/mL) | 1140 (≈ 500 µg/mL) | Non-Toxic |
| COc1ccc(-c2nc(-c3cc4ccccc4nc3N3CCOCC3)no2)cc1 | 1290 (≈ 500 µg/mL) | 1290 (≈ 500 µg/mL) | 257 (≈ 99.8 µg/mL) | 515 (≈ 200 µg/mL) | 644 (≈ 250 µg/mL) | 257 (≈ 99.8 µg/mL) | 2580 (≈ 1000 µg/mL) | 2580 (≈ 1000 µg/mL) | Non-Toxic |
| CCn1cc(C(=O)O)c(=O)c2cc(F)c(N3CCNCC3)cc21 [NORFLOXACIN] | 154 (≈ 49.2 µg/mL) | 154 (≈ 49.2 µg/mL) | 154 (≈ 49.2 µg/mL) | 154 (≈ 49.2 µg/mL) | 154 (≈ 49.2 µg/mL) | 154 (≈ 49.2 µg/mL) |  |  |  |
